Columns and labels:
ADAR = target: T1, ADAR (Homo sapiens, UniProt P55265); conditions: cited from earlier work
T1 sequence (P55265 1-1226): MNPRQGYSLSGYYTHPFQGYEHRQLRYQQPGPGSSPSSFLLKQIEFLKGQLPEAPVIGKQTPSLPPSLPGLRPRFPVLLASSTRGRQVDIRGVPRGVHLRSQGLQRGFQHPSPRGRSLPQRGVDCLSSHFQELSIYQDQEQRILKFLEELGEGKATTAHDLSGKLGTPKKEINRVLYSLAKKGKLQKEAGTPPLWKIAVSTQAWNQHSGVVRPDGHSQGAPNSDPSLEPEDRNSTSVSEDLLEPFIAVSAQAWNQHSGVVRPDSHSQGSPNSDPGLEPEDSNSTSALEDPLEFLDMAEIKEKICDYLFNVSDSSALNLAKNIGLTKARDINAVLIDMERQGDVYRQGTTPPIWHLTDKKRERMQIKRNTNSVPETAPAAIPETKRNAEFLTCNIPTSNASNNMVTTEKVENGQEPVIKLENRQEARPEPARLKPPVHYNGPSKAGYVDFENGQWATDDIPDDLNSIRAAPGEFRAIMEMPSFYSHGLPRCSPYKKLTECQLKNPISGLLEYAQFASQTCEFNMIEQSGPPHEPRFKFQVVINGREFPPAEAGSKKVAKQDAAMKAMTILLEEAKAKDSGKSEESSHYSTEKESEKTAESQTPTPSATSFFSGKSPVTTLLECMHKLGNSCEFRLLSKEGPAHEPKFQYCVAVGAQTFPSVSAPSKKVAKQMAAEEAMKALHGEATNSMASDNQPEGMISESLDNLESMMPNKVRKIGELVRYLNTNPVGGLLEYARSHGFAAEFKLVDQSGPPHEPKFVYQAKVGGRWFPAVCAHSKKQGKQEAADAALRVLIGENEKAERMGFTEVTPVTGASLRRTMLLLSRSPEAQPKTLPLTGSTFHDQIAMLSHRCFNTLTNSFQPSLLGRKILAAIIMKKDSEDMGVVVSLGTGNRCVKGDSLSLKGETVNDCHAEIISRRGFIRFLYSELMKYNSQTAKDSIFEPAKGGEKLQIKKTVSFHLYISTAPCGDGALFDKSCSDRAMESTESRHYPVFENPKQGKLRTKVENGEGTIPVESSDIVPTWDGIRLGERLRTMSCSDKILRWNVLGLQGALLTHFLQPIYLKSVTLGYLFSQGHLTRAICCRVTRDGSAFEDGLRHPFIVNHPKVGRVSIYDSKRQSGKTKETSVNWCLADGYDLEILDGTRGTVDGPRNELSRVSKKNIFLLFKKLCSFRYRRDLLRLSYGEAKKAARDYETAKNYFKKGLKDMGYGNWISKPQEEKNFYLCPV

HeLa-Nluc-edit cells = test: Firefly luciferase (FFL) activity in HeLa-Nluc-edit reporter cells (viability/apoptosis); assay type: cell-based, human; conditions: FIG. 24C
Description: A HeLa cell line (telomerase positive) permanently transformed with a dual luciferase reporter system (HeLa-Nluc-edit) as described by Fritzell, K. et al (Sensitive ADAR editing reporter in cancer cells enables high-throughput screening of small molecule libraries. Nucleic acids research 47, e22, doi:10.1093/nar/gky1228 (2019), which is incorporated herein by reference) were seeded at a density of 800 cells per well into 384 white plates (PerkinElmer, CulturPlate384, #6007689) in 20 μl of Opti-MEM without phenol red (Thermo Fisher Scientific #11058021) using a multidrop dispenser (Thermo Fisher Scientific) and incubated overnight at 37-C, 5% CO2. The cells were then treated with test compounds (Maybridge HitFinder Diversity Set library) for 72 h prior to luminescence signal detection. Briefly, 10 μl of Steadylite Plus FFL assay system reagents were added and firefly luminescence signal was measured within 10-20 min after the addition using a multiplate reader at 1 s integration time. Firefly luciferase activity was calculated for each well and results for each plate were normalized to a negative (0.1% DMSO) and positive (Doxorubicin 10 microM) control. […]
For the second screen, 10 μl of Steadylite Plus FFL assay system reagents were added and firefly luminescence signal was measured within 10-20 min after the addition using a multiplate reader at 1 s integration time. […]

Structure (SMILES) | ADAR inhibition (ADAR) | apoptosis detected by reduction of the FFL activity (HeLa-Nluc-edit cells)
Nc1ncnc2c1nc(Cl)n2[C@@H]1O[C@H](CO)[C@@H](O)[C@H]1O [8-chloroadenosine] | not ADAR inhibitors | 
COc1cccc2c1C(=O)c1c(O)c3c(c(O)c1C2=O)C[C@@](O)(C(=O)CO)C[C@@H]3O[C@H]1C[C@H](N)[C@H](O)[C@H](C)O1 [Doxorubicin] |  | induces acute apoptosis
Nc1ncnc2c1nnn2[C@@H]1O[C@H](CO)[C@@H](O)[C@H]1O [8-azaadenosine] | not ADAR inhibitors | 

Reference: US20250066864A1, “METHODS FOR IDENTIFYING ADAR1 INHIBITORS, AND COMPOSITIONS AND METHODS OF USE IN TREATING CANCER” (The Wistar Institute of Anatomy and Biology, priority 2021, published 2025)
